Test results from PubChem BioAssay AID256 (DTP/NCI, 2004).
Several values for one entry are separate records, joined by “and”; a condition that tells them apart may be missing. Equal values may be shown once. Toxic doses and inconclusive results are not listed.

Tested on: CD2F1 mice, L1210 leukemia ip, survival T/C
Assay: NCI In Vivo Anticancer Drug Screen. Data for tumor model L1210 Leukemia (intraperitoneal) in CD2F1 (CDF1) mice
Conditions: higher = longer survival
Procedure, shortened: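 Read-out first: treated-group measurement over vehicle-control measurement, expressed as a ratio. Animals bore a transplanted tumor line and were dosed with compound or vehicle.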

[1] = endpoint: mean survival time, dose: 100.0 mg/kg/injection, schedule: Q01DX009 (ip), vehicle: saline with Tween-80
[2] = endpoint: mean survival time, dose: 100.0 mg/kg/injection, schedule: Q04DX003 (ip), vehicle: saline with Tween-80
[3] = endpoint: mean survival time, dose: 200.0 mg/kg/injection, schedule: Q01DX009 (ip), vehicle: saline with Tween-80
[4] = endpoint: mean survival time, dose: 200.0 mg/kg/injection, schedule: Q04DX003 (ip), vehicle: saline with Tween-80
[5] = endpoint: mean survival time, dose: 400.0 mg/kg/injection, schedule: Q04DX003 (ip), vehicle: saline with Tween-80
[6] = endpoint: mean survival time, dose: 50.0 mg/kg/injection, schedule: Q01DX009 (ip), vehicle: saline with Tween-80
[7] = endpoint: mean survival time, dose: 12.5 mg/kg/injection, schedule: Q04DX003 (ip), vehicle: saline with Tween-80
[8] = endpoint: mean survival time, dose: 100.0 mg/kg/injection, schedule: Q04DX003 (ip), vehicle: Klucel (hydroxypropylcellulose) (HPC)
[9] = endpoint: mean survival time, dose: 200.0 mg/kg/injection, schedule: Q04DX003 (ip), vehicle: Klucel (hydroxypropylcellulose) (HPC)
[10] = endpoint: mean survival time, dose: 400.0 mg/kg/injection, schedule: Q04DX003 (ip), vehicle: Klucel (hydroxypropylcellulose) (HPC)

## COc1ccc(OC)c(/C=C/c2ccc3ccccc3n2)c1
[1]
  T/C: 110 % of control
[2]
  T/C: 104 % of control
[3]
  T/C: 98 % of control
[4]
  T/C: 104 % of control
endpoint: mean survival time, dose: 400.0 mg/kg/injection, schedule: Q01DX009 (ip), vehicle: saline with Tween-80
  T/C: 106 % of control
[5]
  T/C: 108 % of control

## Cc1ccnc(N)c1N
endpoint: mean survival time, dose: 12.5 mg/kg/injection, schedule: Q01DX009 (ip), vehicle: other
  T/C: 91 % of control
endpoint: mean survival time, dose: 25.0 mg/kg/injection, schedule: Q01DX009 (ip), vehicle: other
  T/C: 94 % of control

## O=C(Nc1ccc(Cl)cc1[N+](=O)[O-])c1ccc2ccccc2c1O
endpoint: mean survival time, dose: 100.0 mg/kg/injection, schedule: Q01DX001 (ip), vehicle: Klucel (hydroxypropylcellulose) (HPC)
  T/C: 100 % of control
endpoint: mean survival time, dose: 200.0 mg/kg/injection, schedule: Q01DX001 (ip), vehicle: Klucel (hydroxypropylcellulose) (HPC)
  T/C: 105 % of control
endpoint: mean survival time, dose: 400.0 mg/kg/injection, schedule: Q01DX001 (ip), vehicle: Klucel (hydroxypropylcellulose) (HPC)
  T/C: 100 % of control

## CC(C)C(=O)C(C)(C)c1nc2ccccc2[nH]1
endpoint: mean survival time, dose: 100.0 mg/kg/injection, schedule: Q04DX002 (ip), vehicle: saline with Tween-80
  T/C: 106 % of control
endpoint: mean survival time, dose: 200.0 mg/kg/injection, schedule: Q04DX002 (ip), vehicle: saline with Tween-80
  T/C: 98 % of control
endpoint: mean survival time, dose: 400.0 mg/kg/injection, schedule: Q04DX002 (ip), vehicle: saline with Tween-80
  T/C: 87 % of control

## C(CN1CCOCC1)CN1CN(CCCN2CCOCC2)CN(CCCN2CCOCC2)C1
[2]
  T/C: 106 % of control
[4]
  T/C: 101 % of control
[5]
  T/C: 113 % of control

## O=C(C[n+]1cc2ccccc2cc1/C=N/O)c1ccccc1
[6]
  T/C: 98 % of control
[1]
  T/C: 93 % of control
[2]
  T/C: 95 % of control
[3]
  T/C: 96 % of control
[4]
  T/C: 95 % of control

## CSC(=S)NN=C(C)C
endpoint: mean survival time, dose: 6.25 mg/kg/injection, schedule: Q01DX009 (ip), vehicle: saline sonified
  T/C: 89 % of control
endpoint: mean survival time, dose: 6.25 mg/kg/injection, schedule: Q04DX003 (ip), vehicle: saline with Tween-80
  T/C: 96 % of control
endpoint: mean survival time, dose: 12.5 mg/kg/injection, schedule: Q01DX009 (ip), vehicle: saline sonified
  T/C: 87 % of control
[7]
  T/C: 96 % of control

## Cc1c2ccccc2cc2c1ccc1cccc(F)c12
endpoint: median survival time, dose: 12.5 mg/kg/injection, schedule: Q04DX003 (ip), vehicle: saline with Tween-80
  T/C: 100 % of control
endpoint: median survival time, dose: 25.0 mg/kg/injection, schedule: Q04DX003 (ip), vehicle: saline with Tween-80
  T/C: 100 % of control
endpoint: median survival time, dose: 50.0 mg/kg/injection, schedule: Q04DX003 (ip), vehicle: saline with Tween-80
  T/C: 100 % of control

## Cc1ccc(N)cc1 (tested in a mixture with another compound)
[7]
  T/C: 97 % of control
endpoint: mean survival time, dose: 25.0 mg/kg/injection, schedule: Q04DX003 (ip), vehicle: saline with Tween-80
  T/C: 101 % of control and 103 % of control
endpoint: mean survival time, dose: 50.0 mg/kg/injection, schedule: Q04DX003 (ip), vehicle: saline with Tween-80
  T/C: 107 % of control
[2]
  T/C: 110 % of control and 103 % of control and 107 % of control
[4]
  T/C: 105 % of control and 117 % of control
[5]
  T/C: 102 % of control

## Cc1ccc(Oc2ccc([N+](=O)[O-])cc2)cc1
endpoint: mean survival time, dose: 50.0 mg/kg/injection, schedule: Q04DX003 (ip), vehicle: saline
  T/C: 101 % of control
endpoint: mean survival time, dose: 100.0 mg/kg/injection, schedule: Q04DX003 (ip), vehicle: saline
  T/C: 100 % of control
endpoint: mean survival time, dose: 200.0 mg/kg/injection, schedule: Q04DX003 (ip), vehicle: saline
  T/C: 94 % of control

## O=C1C=CC(=O)c2ccccc21
endpoint: mean survival time, dose: 1.0 mg/kg/injection, schedule: Q01DX009 (ip), vehicle: Klucel (hydroxypropylcellulose) (HPC)
  T/C: 94 % of control
endpoint: mean survival time, dose: 1.25 mg/kg/injection, schedule: Q04DX003 (ip), vehicle: saline with Tween-80
  T/C: 104 % of control
endpoint: mean survival time, dose: 2.0 mg/kg/injection, schedule: Q01DX009 (ip), vehicle: Klucel (hydroxypropylcellulose) (HPC)
  T/C: 102 % of control
endpoint: mean survival time, dose: 2.5 mg/kg/injection, schedule: Q04DX003 (ip), vehicle: saline with Tween-80
  T/C: 95 % of control
endpoint: mean survival time, dose: 4.0 mg/kg/injection, schedule: Q01DX009 (ip), vehicle: Klucel (hydroxypropylcellulose) (HPC)
  T/C: 102 % of control

## COC1=CCC2C(=O)C=CC(=O)C2C1 (centres undefined)
endpoint: mean survival time, dose: 12.5 mg/kg/injection, schedule: Q01DX005 (ip), vehicle: Klucel (hydroxypropylcellulose) (HPC)
  T/C: 95 % of control
endpoint: mean survival time, dose: 25.0 mg/kg/injection, schedule: Q01DX005 (ip), vehicle: Klucel (hydroxypropylcellulose) (HPC)
  T/C: 95 % of control
endpoint: mean survival time, dose: 50.0 mg/kg/injection, schedule: Q01DX005 (ip), vehicle: Klucel (hydroxypropylcellulose) (HPC)
  T/C: 93 % of control
endpoint: mean survival time, dose: 100.0 mg/kg/injection, schedule: Q01DX005 (ip), vehicle: Klucel (hydroxypropylcellulose) (HPC)
  T/C: 91 % of control
endpoint: mean survival time, dose: 200.0 mg/kg/injection, schedule: Q01DX005 (ip), vehicle: Klucel (hydroxypropylcellulose) (HPC)
  T/C: 90 % of control

## CCCCCCCCCCCCCCCCOP(=O)(O)OCCCCCCCCCCCCCCCC
endpoint: mean survival time, dose: 25.0 mg/kg/injection, schedule: Q01DX009 (ip), vehicle: saline with Tween-80
  T/C: 96 % of control
[6]
  T/C: 102 % of control
[1]
  T/C: 95 % of control

## COc1ccc(C(O)(c2ccccc2)C(C)O)cc1 (centres undefined)
[2]
  T/C: 101 % of control
[4]
  T/C: 98 % of control
[5]
  T/C: 98 % of control

## CSc1nn(C2OC(COC(=O)c3ccccc3)C(OC(=O)c3ccccc3)C2OC(=O)c2ccccc2)c(=O)[nH]c1=S (centres undefined)
endpoint: mean survival time, dose: 12.5 mg/kg/injection, schedule: Q01DX005 (ip), vehicle: distilled water + Tween-80
  T/C: 96 % of control
endpoint: mean survival time, dose: 25.0 mg/kg/injection, schedule: Q01DX005 (ip), vehicle: distilled water + Tween-80
  T/C: 98 % of control
endpoint: mean survival time, dose: 50.0 mg/kg/injection, schedule: Q01DX005 (ip), vehicle: distilled water + Tween-80
  T/C: 95 % of control
endpoint: mean survival time, dose: 100.0 mg/kg/injection, schedule: Q01DX005 (ip), vehicle: distilled water + Tween-80
  T/C: 93 % of control
endpoint: mean survival time, dose: 200.0 mg/kg/injection, schedule: Q01DX005 (ip), vehicle: distilled water + Tween-80
  T/C: 91 % of control

## NC(N)=NC(N)=Nc1ccc(Cl)cc1
[1]
  T/C: 104 % of control
[3]
  T/C: 106 % of control

## Cc1ccc(S(=O)(=O)OC2CNP(=O)(N(CCCl)CCCl)OC2)cc1 (centres undefined)
endpoint: mean survival time, dose: 25.0 mg/kg/injection, schedule: Q01DX001 (ip), vehicle: DMSO
  T/C: 96 % of control
endpoint: mean survival time, dose: 50.0 mg/kg/injection, schedule: Q01DX001 (ip), vehicle: DMSO
  T/C: 100 % of control
endpoint: mean survival time, dose: 100.0 mg/kg/injection, schedule: Q01DX001 (ip), vehicle: DMSO
  T/C: 94 % of control
endpoint: mean survival time, dose: 200.0 mg/kg/injection, schedule: Q01DX001 (ip), vehicle: DMSO
  T/C: 100 % of control
endpoint: mean survival time, dose: 400.0 mg/kg/injection, schedule: Q01DX001 (ip), vehicle: DMSO
  T/C: 98 % of control
endpoint: mean survival time, dose: 800.0 mg/kg/injection, schedule: Q01DX001 (ip), vehicle: DMSO
  T/C: 91 % of control

## O=C(O)c1cc(-c2ccccc2)nc2c1ccc1ccccc12
endpoint: mean survival time, dose: 100.0 mg/kg/injection, schedule: Q01DX001 (ip), vehicle: saline
  T/C: 103 % of control
endpoint: mean survival time, dose: 200.0 mg/kg/injection, schedule: Q01DX001 (ip), vehicle: saline
  T/C: 102 % of control
endpoint: mean survival time, dose: 400.0 mg/kg/injection, schedule: Q01DX001 (ip), vehicle: saline
  T/C: 97 % of control

## CN(C)c1ccc(Nc2c3ccccc3nc3ccccc23)cc1
endpoint: mean survival time, dose: 120.0 mg/kg/injection, schedule: Q03HX040 (oral), vehicle: saline
  T/C: 154 % of control
endpoint: mean survival time, dose: 150.0 mg/kg/injection, schedule: Q03HX008 (oral), vehicle: saline
  T/C: 124 % of control
endpoint: mean survival time, dose: 300.0 mg/kg/injection, schedule: Q03HX016 (oral), vehicle: saline
  T/C: 152 % of control
endpoint: median survival time, dose: 22.5 mg/kg/injection, schedule: Q01DX009 (ip), vehicle: saline
  T/C: 111 % of control
endpoint: median survival time, dose: 45.0 mg/kg/injection, schedule: Q01DX009 (ip), vehicle: saline
  T/C: 161 % of control and 185 % of control
endpoint: median survival time, dose: 90.0 mg/kg/injection, schedule: Q01DX009 (ip), vehicle: saline
  T/C: 188 % of control and 207 % of control

## O=C(O)c1c[nH]c2ccccc2c1=O
[2]
  T/C: 101 % of control
[4]
  T/C: 101 % of control
[5]
  T/C: 90 % of control

## CCOC(=O)C(C)C(O)(c1ccccc1)c1ccccc1 (centres undefined)
[8]
  T/C: 95 % of control
[9]
  T/C: 101 % of control
[10]
  T/C: 95 % of control

## OCc1cc(Cl)cc(Cl)c1O
endpoint: mean survival time, dose: 100.0 mg/kg/injection, schedule: Q01DX009 (ip), vehicle: other
  T/C: 93 % of control
endpoint: mean survival time, dose: 100.0 mg/kg/injection, schedule: Q04DX003 (ip), vehicle: other
  T/C: 92 % of control
endpoint: mean survival time, dose: 200.0 mg/kg/injection, schedule: Q01DX009 (ip), vehicle: other
  T/C: 93 % of control
endpoint: mean survival time, dose: 200.0 mg/kg/injection, schedule: Q04DX003 (ip), vehicle: other
  T/C: 92 % of control

## CCCCCCCCC1SC1CCCCCCCC(=O)OCCOCCOCC (centres undefined)
[8]
  T/C: 104 % of control
[9]
  T/C: 104 % of control
[10]
  T/C: 102 % of control
